From US7378446B2, “Compound having anti-HCV activity and process for producing the same” (Chugai Seiyaku Kabushiki Kaisha, priority 2003, dated 2008) come the findings set out here.

As usually defined, the IC50 is the concentration needed to halve the response being measured. What is called CC50 is the concentration that lowers cell viability or growth by half.

Data set [1] deals with Firefly luciferase HCV replicon cells (3-1). The data set is described as follows: Replicon assay (firefly luciferase HCV replicon). Particulars: Hepatitis C virus, 72 h; Huh7-derived luciferase HCV replicon cells, 3 days culture with compound, Steady-Glo luminescence. Format: cell-based. The method, then:
(§1) A construct was prepared in which a luciferase gene derived from firefly was introduced as a reporter gene in HCV-RNA to assay the number of copies of HCV-RNA. The luciferase gene was introduced in the form of fusing with neomycin-resistance gene directly below the IRES (Internal Ribosome Entry Site) of the HCV gene in accordance with the method of Krieger, et al. (J. Virol. 75:4614). After synthesizing this RNA in vitro, it was introduced into Huh7 cell by electroporation and isolated as G418-resistant clone. Firefly luciferase HCV replicon cells (3-1) were suspended in Dulbecco's MEM (Gibco cat. no. 10569-010) containing 5% fetal bovine serum (Hyclone cat. no. SH30071.03), inoculated into the wells of a 96-well plate at 5000 cells/well and then cultured overnight at 37° C. and 5% CO2. Approximately 20 hours later, the diluted test compound was added at 10 μl per well followed by culturing for another 3 days. Two series of assay plates were prepared, and the assay was carried out using a white plate for one series and a clear plate for the other series. Following completion of culturing, the white plate was used for the Steady-Glo Luciferase Assay System (Promega cat. no. E2520). Namely, after adding 100 μl of reagent per well, mixing by a pipette 3 to 4 times and then allowing to stand for 5 minutes, luminescence was measured with the 1450 MicroBeta TRILUX (Wallac). Values obtained in the absence of cell addition were used as background values and subtracted from all values to calculate the IC50 (50% inhibitory concentration) of the drug based on a value of 0% inhibition for the value in the absence of addition of test compound.
Background: A replicon is a self-replicating genome or part of one, used to study replication in cells.

Another data set in a line: in vitro. The note with it: human; replicon cells, 3 days culture with compound, Cell Counting Kit 8, absorbance 450 nm; read-out: Cytotoxicity CC50. Format: cell-based. The method, then:
as §1
The Cell Counting Kit 8 (Dojindo cat. no. CK04) was used to determine the cytotoxicity. Namely, 10 μl of Cell Counting Kit 8 were added to a clear plate and incubated for 30 to 60 minutes at 37° C. Absorbance at a wavelength of 450 nm and a control wavelength of 630 nm was measured with a 96-well plate reader. Values in the absence of cell addition were used as background values and subtracted from all values to calculate the CC50 (50% cell inhibitory concentration) of the drug based on a value of 0% inhibition for the value in the absence of addition of drug.

Where only a bound is given, the exact number is not on record here.

As to `CC(C)CCOc1ccc(C[C@H](NC(=O)[C@@H](/C=C/CCCCCCC(=O)CCC2CCCCC2)[C@](O)(CC(=O)O)C(=O)O)C(=O)O)cc1` [Compound 52], in data set [1], the IC50 was found to be 24 nM. Besides, the CC50 in the data set “in vitro” is over 1000 nM.

Regarding `CCCCCCCC(=O)CCCCCC/C=C/[C@H](C(=O)N[C@@H](Cc1ccc(Oc2ccc(C)cc2)cc1)C(=O)O)[C@@](O)(CC(=O)O)C(=O)O` [Compound 53], the IC50 in data set [1] was found to be 2 nM. Further, the CC50 in “in vitro” is over 1000 nM.

`CCCCCCCC(=O)CCCCCC/C=C/[C@H](C(=O)N[C@@H](Cc1ccc(Oc2ccc(OC)cc2)cc1)C(=O)O)[C@@](O)(CC(=O)O)C(=O)O` [Compound 54]: the IC50 in data set [1] came to 2 nM. Also, in “in vitro”, the CC50 is over 1000 nM.

Take `CCCCCCCC(=O)CCCCCC/C=C/[C@H](C(=O)N[C@@H](Cc1ccc(Oc2ccc(C(F)(F)F)cc2)cc1)C(=O)O)[C@@](O)(CC(=O)O)C(=O)O` [Compound 55]: in data set [1], the IC50 is 19 nM. In addition, the CC50 in the data set “in vitro” was over 1000 nM.

`CCCCCCCC(=O)CCCCCC/C=C/[C@H](C(=O)N[C@@H](Cc1ccc(Oc2cccc(C)c2)cc1)C(=O)O)[C@@](O)(CC(=O)O)C(=O)O` [Compound 56]: the IC50 in data set [1] was determined as 6 nM. Besides, the CC50 in “in vitro” is over 1000 nM.

On to `CCCCCCCC(=O)CCCCCC/C=C/[C@H](C(=O)N[C@@H](Cc1ccc(Oc2cccc(C(F)(F)F)c2)cc1)C(=O)O)[C@@](O)(CC(=O)O)C(=O)O` [Compound 57], for which the concentration for half-maximal inhibition (IC50) in data set [1] was 11 nM. Also, the half-maximal cytotoxic concentration (CC50) in the data set “in vitro” is over 1000 nM.

Turning to `CCCCCCCC(=O)CCCCCC/C=C/[C@H](C(=O)N[C@@H](Cc1ccc(-c2ccc(OC)cc2)cc1)C(=O)O)[C@@](O)(CC(=O)O)C(=O)O` [Compound 58], in data set [1], the IC50 worked out at 4 nM. Also, in the data set “in vitro”, the CC50 was over 1000 nM.

Turning to `CCCCCCCC(=O)CCCCCC/C=C/[C@H](C(=O)N[C@@H](Cc1ccc(-c2ccc(C)cc2)cc1)C(=O)O)[C@@](O)(CC(=O)O)C(=O)O` [Compound 59], in data set [1], the IC50 was 3 nM. Moreover, in “in vitro”, the CC50 was over 1000 nM.

On to `CCCCCCCC(=O)CCCCCC/C=C/[C@H](C(=O)N[C@@H](Cc1ccc(-c2ccc(C(F)(F)F)cc2)cc1)C(=O)O)[C@@](O)(CC(=O)O)C(=O)O` [Compound 60], for which the IC50 in data set [1] came out at 8 nM. Further, in the data set “in vitro”, the CC50 was over 1000 nM.

For `CCCCCCCC(=O)CCCCCC/C=C/[C@H](C(=O)N[C@@H](Cc1ccc(-c2cccc(C)c2)cc1)C(=O)O)[C@@](O)(CC(=O)O)C(=O)O` [Compound 61], the IC50 in data set [1] was 6 nM. Also, the CC50 in the data set “in vitro” was over 1000 nM.

On to `CCCCCCCC(=O)CCCCCC/C=C/[C@H](C(=O)N[C@@H](Cc1ccc(-c2cccc(OC)c2)cc1)C(=O)O)[C@@](O)(CC(=O)O)C(=O)O` [Compound 62], for which, in data set [1], the IC50 was found to be 2 nM. Further, the CC50 in “in vitro” was over 1000 nM.

For `CCCCCCCC(=O)CCCCCC/C=C/[C@H](C(=O)N[C@@H](Cc1ccc(-c2cccc(C(F)(F)F)c2)cc1)C(=O)O)[C@@](O)(CC(=O)O)C(=O)O` [Compound 63], the half-maximal inhibitory concentration (IC50) in data set [1] is 10 nM. In addition, the CC50 in the data set “in vitro” was over 1000 nM.

In the case of `CCCCCCCC(=O)CCCCCC/C=C/[C@H](C(=O)N[C@@H](Cc1ccc(Oc2cccc(F)c2)cc1)C(=O)O)[C@@](O)(CC(=O)O)C(=O)O` [Compound 64], the IC50 in data set [1] was 7 nM. In addition, the CC50 in “in vitro” was over 1000 nM.

`CCCCCCCC(=O)CCCCCC/C=C/[C@H](C(=O)N[C@@H](Cc1ccc(-c2ccccc2F)cc1)C(=O)O)[C@@](O)(CC(=O)O)C(=O)O` [Compound 65]: in data set [1], the 50% inhibitory concentration (IC50) is 2 nM. Besides, the CC50 in the data set “in vitro” is over 1000 nM.

As for `CCCCCCCC(=O)CCCCCC/C=C/[C@H](C(=O)N[C@@H](Cc1ccc(-c2cccc(F)c2)cc1)C(=O)O)[C@@](O)(CC(=O)O)C(=O)O` [Compound 66], the IC50 in data set [1] turned out to be 6 nM. Besides, the CC50 in the data set “in vitro” is over 1000 nM.

As for `CCCCCCCC(=O)CCCCCC/C=C/[C@H](C(=O)N[C@@H](Cc1ccc(Oc2ccc(N(C)C)cc2)cc1)C(=O)O)[C@@](O)(CC(=O)O)C(=O)O` [Compound 67], the IC50 in data set [1] was 4 nM. The CC50 in the data set “in vitro” was over 1000 nM.

Regarding `CCCCCCCC(=O)CCCCCC/C=C/[C@H](C(=O)N[C@@H](Cc1ccc(-c2ccc(N(C)C)cc2)cc1)C(=O)O)[C@@](O)(CC(=O)O)C(=O)O` [Compound 68], the half-inhibitory concentration (IC50) in data set [1] is 2 nM. The CC50 in the data set “in vitro” was over 1000 nM.

Consider `CCCCCCCC(=O)CCCCCC/C=C/[C@H](C(=O)N[C@@H](Cc1ccc(Nc2ccccc2)cc1)C(=O)O)[C@@](O)(CC(=O)O)C(=O)O` [Compound 69], for which the IC50 in data set [1] is 2 nM. Moreover, the CC50 in the data set “in vitro” was over 1000 nM.

Consider `CCCCCCCC(=O)CCCCCC/C=C/[C@H](C(=O)N[C@@H](Cc1ccc(Oc2ccc(C#N)cc2)cc1)C(=O)O)[C@@](O)(CC(=O)O)C(=O)O` [Compound 70], for which the IC50 in data set [1] was determined as 11 nM. Further, the CC50 in the data set “in vitro” was over 1000 nM.

On to `CCCCCCCC(=O)CCCCCC/C=C/[C@H](C(=O)N[C@@H](Cc1ccc(-c2ccc(C#N)cc2)cc1)C(=O)O)[C@@](O)(CC(=O)O)C(=O)O` [Compound 71], for which the IC50 in data set [1] came out at 4 nM. Further, the CC50 in “in vitro” is over 1000 nM.

Turning to `CCCCCCCC(=O)CCCCCC/C=C/[C@H](C(=O)N[C@@H](Cc1ccc(N2CCOCC2)cc1)C(=O)O)[C@@](O)(CC(=O)O)C(=O)O` [Compound 72], the IC50 in data set [1] was 6 nM. The 50% cytotoxic concentration (CC50) in “in vitro” was over 1000 nM.

In the case of `CCCCCCCC(=O)CCCCCC/C=C/[C@H](C(=O)N[C@@H](Cc1ccc(-c2ccc(OC)nc2)cc1)C(=O)O)[C@@](O)(CC(=O)O)C(=O)O` [Compound 73], in data set [1], the IC50 came out at 2 nM. In addition, the CC50 in the data set “in vitro” is over 1000 nM.

For the compound `CCCCCCCC(=O)CCCCCC/C=C/[C@H](C(=O)N[C@@H](Cc1ccc(-c2ccc(S(=O)(=O)N(C)C)cc2)cc1)C(=O)O)[C@@](O)(CC(=O)O)C(=O)O` [Compound 74], the 50% inhibitory concentration (IC50) in data set [1] was determined as 135 nM. The CC50 in the data set “in vitro” was over 1000 nM.

On to `CCCCCCCC(=O)CCCCCC/C=C/[C@H](C(=O)N[C@@H](Cc1ccc(N(C)c2ccccc2)cc1)C(=O)O)[C@@](O)(CC(=O)O)C(=O)O` [Compound 75], for which the IC50 in data set [1] was found to be 6 nM. Moreover, the CC50 in the data set “in vitro” is over 1000 nM.

As for `CCCCCCCC(=O)CCCCCC/C=C/[C@H](C(=O)N[C@@H](Cc1ccc(-c2cncnc2)cc1)C(=O)O)[C@@](O)(CC(=O)O)C(=O)O` [Compound 76], in data set [1], the concentration for half-maximal inhibition (IC50) is 13 nM. Moreover, in “in vitro”, the CC50 was over 1000 nM.

On to `CCCCCCCC(=O)CCCCCC/C=C/[C@H](C(=O)N[C@@H](Cc1ccc(-c2ccc(SC)cc2)cc1)C(=O)O)[C@@](O)(CC(=O)O)C(=O)O` [Compound 77], for which the IC50 in data set [1] is 7 nM. Also, in the data set “in vitro”, the cytotoxic concentration (CC50) is over 1000 nM.

`CCCCCCCC(=O)CCCCCC/C=C/[C@H](C(=O)N[C@@H](Cc1ccc(-c2cncc(OC)c2)cc1)C(=O)O)[C@@](O)(CC(=O)O)C(=O)O` [Compound 78]: the IC50 in data set [1] was found to be 3 nM. Moreover, the half-maximal cytotoxic concentration (CC50) in “in vitro” was over 1000 nM.

`CCCCCCCC(=O)CCCCCC/C=C/[C@H](C(=O)N[C@@H](Cc1ccc(-c2c(C)noc2C)cc1)C(=O)O)[C@@](O)(CC(=O)O)C(=O)O` [Compound 79]: the IC50 in data set [1] turned out to be 104 nM. Besides, in the data set “in vitro”, the CC50 was over 1000 nM.

As to `CCCCCCCC(=O)CCCCCC/C=C/[C@H](C(=O)N[C@@H](Cc1ccc(-c2ccc(S(C)(=O)=O)cc2)cc1)C(=O)O)[C@@](O)(CC(=O)O)C(=O)O` [Compound 80], the IC50 in data set [1] was 71 nM. For the same compound, in the data set “in vitro”, the CC50 was over 1000 nM.

On to `CCCCCCCC(=O)CCCCCC/C=C/[C@H](C(=O)N[C@@H](Cc1ccc(-c2cnc(OC)nc2)cc1)C(=O)O)[C@@](O)(CC(=O)O)C(=O)O` [Compound 81], for which the IC50 in data set [1] came to 8 nM. Besides, the CC50 in the data set “in vitro” is over 1000 nM.
